Source: ChEMBL document CHEMBL2413072, “Synthesis and in vitro anticancer studies of novel C-2 arylidene congeners of lantadenes” (2013)

Columns and labels:
Assay type in all cases: functional
[1] = test system: OVCAR-3; assay: Growth inhibition of human OVCAR3 cells by sulforhodamine B assay
[2] = test system: MCF7; assay: Growth inhibition of human MCF7 cells by sulforhodamine B assay
[3] = test system: SF-268; assay: Growth inhibition of human SF268 cells assessed as cell growth at 10^-8 M by sulforhodamine B assay; conditions: read-out: Activity
[4] = test system: TK-10; assay: Growth inhibition of human TK10 cells by sulforhodamine B assay
[5] = test system: OVCAR-5; assay: Growth inhibition of human OVCAR5 cells by sulforhodamine B assay
[6] = test system: MDA-MB-435; assay: Growth inhibition of human MDA-MB-435 cells assessed as cell growth at 10^-8 M by sulforhodamine B assay; conditions: read-out: Activity
[7] = test system: OVCAR-3; assay: Growth inhibition of human OVCAR3 cells assessed as cell growth at 10^-7 M by sulforhodamine B assay; conditions: read-out: Activity
[8] = test system: 786-0; assay: Growth inhibition of human 786-0 cells assessed as cell growth at 10^-6 M by sulforhodamine B assay; conditions: read-out: Activity
[9] = test system: TK-10; assay: Growth inhibition of human TK10 cells assessed as cell growth at 10^-7 M by sulforhodamine B assay; conditions: read-out: Activity
[10] = test system: OVCAR-4; assay: Growth inhibition of human OVCAR4 cells assessed as cell growth at 10^-7 M by sulforhodamine B assay; conditions: read-out: Activity
[11] = test system: LOX IMVI; assay: Growth inhibition of human LOXIMVI cells assessed as cell growth at 10^-7 M by sulforhodamine B assay; conditions: read-out: Activity
[12] = test system: KM12; assay: Growth inhibition of human KM12 cells assessed as cell growth at 10^-4 M by sulforhodamine B assay; conditions: read-out: Activity
[13] = test system: HT-29; assay: Growth inhibition of human HT-29 cells assessed as cell growth at 10^-4 M by sulforhodamine B assay; conditions: read-out: Activity
[14] = test system: A549; assay: Growth inhibition of human A549/ATCC cells assessed as cell growth at 10^-4 M by sulforhodamine B assay; conditions: read-out: Activity
[15] = test system: HT-29; assay: Growth inhibition of human HT-29 cells assessed as cell growth at 10^-8 M by sulforhodamine B assay; conditions: read-out: Activity
[16] = test system: BT-549; assay: Growth inhibition of human BT549 cells by sulforhodamine B assay
[17] = test system: SK-OV-3; assay: Growth inhibition of human SKOV3 cells assessed as cell growth at 10^-8 M by sulforhodamine B assay; conditions: read-out: Activity
[18] = test system: ACHN; assay: Growth inhibition of human ACHN cells assessed as cell growth at 10^-6 M by sulforhodamine B assay; conditions: read-out: Activity
[19] = test system: A498; assay: Growth inhibition of human A498 cells assessed as cell growth at 10^-4 M by sulforhodamine B assay; conditions: read-out: Activity
[20] = test system: SNB-75; assay: Growth inhibition of human SNB75 cells by sulforhodamine B assay
[21] = test system: UACC-257; assay: Growth inhibition of human UACC257 cells assessed as cell growth at 10^-7 M by sulforhodamine B assay; conditions: read-out: Activity
[22] = Growth inhibition of human Hs 578T cells by sulforhodamine B assay
[23] = test system: U-251; assay: Growth inhibition of human U251 cells by sulforhodamine B assay
[24] = test system: NCI-H522; assay: Growth inhibition of human NCI-H522 cells assessed as cell growth at 10^-7 M by sulforhodamine B assay; conditions: read-out: Activity
[25] = test system: NCI-H322M; assay: Growth inhibition of human NCI-H322M cells assessed as cell growth at 10^-6 M by sulforhodamine B assay; conditions: read-out: Activity
[26] = test system: MDA-MB-435; assay: Growth inhibition of human MDA-MB-435 cells assessed as cell growth at 10^-7 M by sulforhodamine B assay; conditions: read-out: Activity
[27] = test system: BT-549; assay: Growth inhibition of human BT549 cells assessed as cell growth at 10^-4 M by sulforhodamine B assay; conditions: read-out: Activity
[28] = Growth inhibition of human HCC2998 cells assessed as cell growth at 10^-7 M by sulforhodamine B assay; conditions: HCC 2998, read-out: Activity
[29] = test system: DU-145; assay: Growth inhibition of human DU145 cells assessed as cell growth at 10^-8 M by sulforhodamine B assay; conditions: read-out: Activity
[30] = test system: HCT-116; assay: Growth inhibition of human HCT116 cells assessed as cell growth at 10^-6 M by sulforhodamine B assay; conditions: read-out: Activity
[31] = test system: Malme-3M; assay: Growth inhibition of human MALME-3M cells assessed as cell growth at 10^-4 M by sulforhodamine B assay; conditions: read-out: Activity
[32] = test system: HCT-116; assay: Growth inhibition of human HCT116 cells assessed as cell growth at 10^-8 M by sulforhodamine B assay; conditions: read-out: Activity
[33] = test system: CCRF-CEM; assay: Growth inhibition of human CCRF-CEM cells assessed as cell growth at 10^-4 M by sulforhodamine B assay; conditions: read-out: Activity
[34] = test system: K562; assay: Growth inhibition of human K562 cells assessed as cell growth at 10^-8 M by sulforhodamine B assay; conditions: read-out: Activity
[35] = test system: KM12; assay: Growth inhibition of human KM12 cells assessed as cell growth at 10^-8 M by sulforhodamine B assay; conditions: read-out: Activity
[36] = test system: UO-31; assay: Growth inhibition of human UO31 cells assessed as cell growth at 10^-7 M by sulforhodamine B assay; conditions: read-out: Activity
[37] = test system: SK-MEL-5; assay: Growth inhibition of human SK-MEL-5 cells assessed as cell growth at 10^-7 M by sulforhodamine B assay; conditions: read-out: Activity
[38] = test system: RXF 393; assay: Growth inhibition of human RXF393 cells assessed as cell growth at 10^-4 M by sulforhodamine B assay; conditions: read-out: Activity
[39] = test system: RPMI-8226; assay: Growth inhibition of human RPMI8226 cells by sulforhodamine B assay
[40] = read-out: LC50 (the source's name)
[41] = read-out: pLC50 (the source's name) (converted)

Compound `CC(C)=CC(=O)O[C@@H]1CC(C)(C)C[C@H]2C3=CC[C@@H]4[C@@]5(C)CCC(=O)C(C)(C)[C@@H]5CC[C@@]4(C)[C@]3(C)CC[C@@]12C(=O)O` has a GI50 ([1]; read-out: GI50) of 4.08 µM, a CC50 [1, 40] of 59.1 µM and a TGI ([1]; read-out: TGI) of 19 µM. It also gave a GI50 ([1]; read-out: pGI50 (converted)) of 4.07 µM, a CC50 [1, 41] of 58.9 µM and a TGI ([1]; read-out: pTGI (converted)) of 19.1 µM. The GI50 ([2]; read-out: GI50) was 3.29 µM, the CC50 [2, 40] was over 100 µM and the TGI ([2]; read-out: TGI) was over 100 µM. The GI50 ([2]; read-out: pGI50 (converted)) was 3.31 µM, the CC50 [2, 41] was over 100 µM and the TGI ([2]; read-out: pTGI (converted)) was over 100 µM. For the same compound, the growth at 0.01 µM [3] was 96%, the GI50 ([4]; read-out: GI50) was 7.02 µM and the CC50 [4, 40] was over 100 µM. It also gave a TGI ([4]; read-out: TGI) of 49.6 µM, a GI50 ([4]; read-out: pGI50 (converted)) of 7.08 µM and a CC50 [4, 41] of over 100 µM. For the same compound, the TGI ([4]; read-out: pTGI (converted)) was 50.1 µM, the GI50 ([5]; read-out: GI50) was 6.53 µM and the CC50 [5, 40] was over 100 µM. It also gave a TGI ([5]; read-out: TGI) of 32.7 µM, a GI50 ([5]; read-out: pGI50 (converted)) of 6.61 µM and a CC50 [5, 41] of over 100 µM. For the same compound, the TGI ([5]; read-out: pTGI (converted)) was 32.4 µM, the growth at 0.01 µM [6] was 99% and the growth at 0.1 µM [7] was 100%. For the same compound, the growth at 1 µM [8] was 92%, the growth at 0.1 µM [9] was 93% and the growth at 0.1 µM [10] was 97%. It also gave a growth at 0.1 µM [11] of 92%, a growth at 100 µM [12] of -69% and a growth at 100 µM [13] of -27%. The growth at 100 µM [14] was -41%, the growth at 0.01 µM [15] was 101% and the GI50 ([16]; read-out: GI50) was 4.79 µM. For the same compound, the CC50 [16, 40] was over 100 µM, the TGI ([16]; read-out: TGI) was 25 µM and the GI50 ([16]; read-out: pGI50 (converted)) was 4.79 µM. The CC50 [16, 41] was over 100 µM, the TGI ([16]; read-out: pTGI (converted)) was 25.1 µM and the growth at 0.01 µM [17] was 106%. It also gave a growth at 1 µM [18] of 73%, a growth at 100 µM [19] of -44% and a GI50 ([20]; read-out: GI50) of 7.71 µM. It also gave a CC50 [20, 40] of over 100 µM, a TGI ([20]; read-out: TGI) of 39.2 µM and a GI50 ([20]; read-out: pGI50 (converted)) of 7.76 µM. It also gave a CC50 [20, 41] of over 100 µM, a TGI ([20]; read-out: pTGI (converted)) of 38.9 µM and a growth at 0.1 µM [21] of 93%. For the same compound, the GI50 ([22]; read-out: GI50) was 4.16 µM, the CC50 [22, 40] was over 100 µM and the TGI ([22]; read-out: TGI) was 53.6 µM. The GI50 ([22]; read-out: pGI50 (converted)) was 4.17 µM, the CC50 [22, 41] was over 100 µM and the TGI ([22]; read-out: pTGI (converted)) was 53.7 µM. It also gave a GI50 ([23]; read-out: GI50) of 2900 nM, a CC50 [23, 40] of over 100 µM and a TGI ([23]; read-out: TGI) of 20.7 µM. It also gave a GI50 ([23]; read-out: pGI50 (converted)) of 2880 nM, a CC50 [23, 41] of over 100 µM and a TGI ([23]; read-out: pTGI (converted)) of 20.9 µM. It also gave a growth at 0.1 µM [24] of 92%, a growth at 1 µM [25] of 83% and a growth at 0.1 µM [26] of 98%. The growth at 100 µM [27] was -47%, the growth at 0.1 µM [28] was 96% and the growth at 0.01 µM [29] was 105%. For the same compound, the growth at 1 µM [30] was 70%, the growth at 100 µM [31] was -5% and the growth at 0.01 µM [32] was 98%. It also gave a growth at 100 µM [33] of -14%, a growth at 0.01 µM [34] of 116% and a growth at 0.01 µM [35] of 101%. For the same compound, the growth at 0.1 µM [36] was 91%, the growth at 0.1 µM [37] was 91% and the growth at 100 µM [38] was -67%. It also gave a GI50 ([39]; read-out: GI50) of 1460 nM, a CC50 [39, 40] of over 100 µM and a TGI ([39]; read-out: TGI) of 23.3 µM. The GI50 ([39]; read-out: pGI50 (converted)) was 1480 nM, the CC50 [39, 41] was over 100 µM and the TGI ([39]; read-out: pTGI (converted)) was 23.4 µM.
